Drawing on paper PMC6704710, “Preclinical evaluation of 3D185, a novel potent inhibitor of FGFR1/2/3 and CSF-1R, in FGFR-dependent and macrophage-dominant cancer models” (Journal of Experimental & Clinical Cancer Research : CR, 2019), this text covers inhibition for 1 compound.

What all share (test): Eurofins kinase panel
Type in all cases: biochemical
Conditions in all cases: read-out: Inhibition rate (%)

The target in one assay is T1, EphA4(h) (Homo sapiens, UniProt P54764).
T1 construct: purchased Eurofins (KinaseProfiler)
T1 sequence (P54764 20-986): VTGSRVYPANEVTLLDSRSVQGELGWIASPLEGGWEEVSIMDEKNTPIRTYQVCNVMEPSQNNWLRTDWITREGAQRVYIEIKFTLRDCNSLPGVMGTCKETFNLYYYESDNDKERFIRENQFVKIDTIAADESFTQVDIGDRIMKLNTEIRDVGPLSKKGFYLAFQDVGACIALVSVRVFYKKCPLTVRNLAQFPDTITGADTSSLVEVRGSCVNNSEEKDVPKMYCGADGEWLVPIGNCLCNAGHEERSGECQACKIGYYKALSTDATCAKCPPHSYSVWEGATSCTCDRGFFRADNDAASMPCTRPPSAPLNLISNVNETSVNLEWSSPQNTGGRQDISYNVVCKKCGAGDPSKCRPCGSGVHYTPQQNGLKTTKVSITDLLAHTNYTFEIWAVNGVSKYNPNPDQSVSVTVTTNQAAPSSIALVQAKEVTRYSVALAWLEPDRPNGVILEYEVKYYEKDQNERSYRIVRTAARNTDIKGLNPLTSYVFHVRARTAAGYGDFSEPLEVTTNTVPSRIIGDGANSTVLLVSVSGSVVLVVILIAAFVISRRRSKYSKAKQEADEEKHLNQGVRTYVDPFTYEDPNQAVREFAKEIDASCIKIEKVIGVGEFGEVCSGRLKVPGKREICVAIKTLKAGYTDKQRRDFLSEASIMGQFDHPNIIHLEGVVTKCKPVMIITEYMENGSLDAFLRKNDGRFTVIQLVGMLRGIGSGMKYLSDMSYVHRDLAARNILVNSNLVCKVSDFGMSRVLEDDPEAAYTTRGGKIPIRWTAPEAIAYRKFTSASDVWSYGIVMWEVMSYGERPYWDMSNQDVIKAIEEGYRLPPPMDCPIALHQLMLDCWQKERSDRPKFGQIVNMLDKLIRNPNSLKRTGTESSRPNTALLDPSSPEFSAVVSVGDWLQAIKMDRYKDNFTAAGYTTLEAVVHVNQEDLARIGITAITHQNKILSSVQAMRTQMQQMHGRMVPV

For the next assay, the target named is T2, IRAK4(h) (Homo sapiens, UniProt Q9NWZ3).
T2 construct: purchased Eurofins (KinaseProfiler)
T2 sequence (Q9NWZ3 1-460): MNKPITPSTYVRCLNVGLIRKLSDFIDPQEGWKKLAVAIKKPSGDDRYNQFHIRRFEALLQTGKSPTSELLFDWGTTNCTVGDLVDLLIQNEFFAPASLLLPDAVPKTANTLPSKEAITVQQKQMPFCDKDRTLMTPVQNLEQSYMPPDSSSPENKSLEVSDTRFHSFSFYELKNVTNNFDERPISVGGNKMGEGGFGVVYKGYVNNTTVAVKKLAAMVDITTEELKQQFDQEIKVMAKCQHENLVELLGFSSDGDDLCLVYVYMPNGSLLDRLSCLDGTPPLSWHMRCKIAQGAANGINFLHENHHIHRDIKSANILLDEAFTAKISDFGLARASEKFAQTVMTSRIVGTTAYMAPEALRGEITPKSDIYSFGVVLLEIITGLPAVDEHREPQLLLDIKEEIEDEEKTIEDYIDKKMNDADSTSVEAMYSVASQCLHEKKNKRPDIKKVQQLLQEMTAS

Another assay concerns the target T3, SRPK1(h) (Homo sapiens, UniProt Q96SB4).
T3 construct: purchased Eurofins (KinaseProfiler)

The target of a further assay is T4, TAO2(h) (Homo sapiens, UniProt Q9UL54).
T4 construct: purchased Eurofins (KinaseProfiler)
T4 sequence (Q9UL54 1-1235): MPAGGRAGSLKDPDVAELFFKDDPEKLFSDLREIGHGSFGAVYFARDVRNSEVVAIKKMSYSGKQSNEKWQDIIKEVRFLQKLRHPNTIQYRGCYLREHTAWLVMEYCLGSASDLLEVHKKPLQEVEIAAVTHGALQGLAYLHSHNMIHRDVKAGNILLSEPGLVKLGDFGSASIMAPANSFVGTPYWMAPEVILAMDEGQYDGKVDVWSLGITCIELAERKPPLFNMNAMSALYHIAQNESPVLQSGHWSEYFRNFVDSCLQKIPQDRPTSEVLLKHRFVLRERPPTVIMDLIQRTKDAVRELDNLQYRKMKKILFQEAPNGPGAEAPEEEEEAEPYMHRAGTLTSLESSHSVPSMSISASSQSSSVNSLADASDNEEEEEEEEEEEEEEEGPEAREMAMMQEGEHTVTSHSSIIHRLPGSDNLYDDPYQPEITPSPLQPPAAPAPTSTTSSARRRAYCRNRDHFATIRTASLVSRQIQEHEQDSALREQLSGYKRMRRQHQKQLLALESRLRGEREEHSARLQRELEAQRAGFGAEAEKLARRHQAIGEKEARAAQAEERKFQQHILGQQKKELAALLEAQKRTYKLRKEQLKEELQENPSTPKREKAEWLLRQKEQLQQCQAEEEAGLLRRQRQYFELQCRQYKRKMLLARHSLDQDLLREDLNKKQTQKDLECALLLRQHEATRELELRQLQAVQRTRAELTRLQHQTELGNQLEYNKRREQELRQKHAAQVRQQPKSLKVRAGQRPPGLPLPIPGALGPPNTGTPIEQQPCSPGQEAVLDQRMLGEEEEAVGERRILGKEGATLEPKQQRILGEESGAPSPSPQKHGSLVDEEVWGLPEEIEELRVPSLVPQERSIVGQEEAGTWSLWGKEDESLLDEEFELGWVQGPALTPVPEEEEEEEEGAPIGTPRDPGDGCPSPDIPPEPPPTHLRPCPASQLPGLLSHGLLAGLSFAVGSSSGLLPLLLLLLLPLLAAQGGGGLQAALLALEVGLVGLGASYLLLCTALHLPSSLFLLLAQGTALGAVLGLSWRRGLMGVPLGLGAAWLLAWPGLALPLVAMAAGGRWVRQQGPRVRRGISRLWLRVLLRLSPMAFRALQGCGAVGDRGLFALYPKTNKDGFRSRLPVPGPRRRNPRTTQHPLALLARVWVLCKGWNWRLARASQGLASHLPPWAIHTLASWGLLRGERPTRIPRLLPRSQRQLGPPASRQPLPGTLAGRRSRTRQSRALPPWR

In the next assay the target is T5, Yes(h) (Homo sapiens, UniProt P07947).
T5 construct: purchased Eurofins (KinaseProfiler)
T5 sequence (P07947 whole entry): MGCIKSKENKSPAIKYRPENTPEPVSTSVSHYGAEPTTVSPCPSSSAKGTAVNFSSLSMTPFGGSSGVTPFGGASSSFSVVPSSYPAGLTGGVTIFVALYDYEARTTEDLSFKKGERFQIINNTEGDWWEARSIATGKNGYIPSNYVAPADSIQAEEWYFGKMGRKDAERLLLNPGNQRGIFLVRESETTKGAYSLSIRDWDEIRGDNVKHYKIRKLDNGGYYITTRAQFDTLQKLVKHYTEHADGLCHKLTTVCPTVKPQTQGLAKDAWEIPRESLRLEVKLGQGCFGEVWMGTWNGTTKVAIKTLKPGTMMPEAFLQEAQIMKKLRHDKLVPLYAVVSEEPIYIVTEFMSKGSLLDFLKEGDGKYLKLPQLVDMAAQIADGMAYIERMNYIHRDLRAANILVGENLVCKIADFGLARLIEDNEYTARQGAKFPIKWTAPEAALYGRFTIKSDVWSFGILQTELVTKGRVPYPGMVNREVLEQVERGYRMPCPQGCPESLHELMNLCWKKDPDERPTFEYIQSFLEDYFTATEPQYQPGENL

Each structure is given as a SMILES string.

T3 sequence (Q96SB4 whole entry): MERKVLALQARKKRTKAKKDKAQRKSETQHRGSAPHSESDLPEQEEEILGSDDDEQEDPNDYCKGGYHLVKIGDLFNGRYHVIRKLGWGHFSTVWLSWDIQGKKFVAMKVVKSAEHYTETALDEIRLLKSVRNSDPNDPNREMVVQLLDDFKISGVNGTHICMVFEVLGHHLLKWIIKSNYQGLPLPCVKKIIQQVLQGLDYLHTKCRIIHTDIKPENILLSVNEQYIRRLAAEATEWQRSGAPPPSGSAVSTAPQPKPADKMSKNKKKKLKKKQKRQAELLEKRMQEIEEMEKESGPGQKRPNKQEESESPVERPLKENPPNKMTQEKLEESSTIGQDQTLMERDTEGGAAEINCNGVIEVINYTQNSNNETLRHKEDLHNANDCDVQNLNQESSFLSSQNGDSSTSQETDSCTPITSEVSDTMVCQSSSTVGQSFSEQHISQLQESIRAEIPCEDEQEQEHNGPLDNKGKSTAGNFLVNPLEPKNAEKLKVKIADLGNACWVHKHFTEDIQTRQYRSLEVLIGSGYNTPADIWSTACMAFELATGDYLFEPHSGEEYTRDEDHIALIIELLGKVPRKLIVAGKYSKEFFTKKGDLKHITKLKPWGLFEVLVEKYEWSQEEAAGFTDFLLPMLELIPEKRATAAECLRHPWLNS

Turning to `COc1cc(OC)c(Cl)c(-c2ccc3c(NC(=O)c4ccc(N5CCNC(C)(C)C5)cc4)n[nH]c3n2)c1Cl` [3D185], the inhibition at 0.01 µM on EphA4(h) (10 nM) is 14%; on IRAK4(h) (10 nM), -2%; at SRPK1(h) (10 nM), 13%; at TAO2(h) (10 nM), 12%; on Yes(h) (10 nM) it was 10%. Further, the inhibition at 0.1 µM was 5% at EphA4(h) (100 nM); -2% at IRAK4(h) (100 nM); 9% on SRPK1(h) (100 nM); 28% at TAO2(h) (100 nM); 66% on Yes(h) (100 nM). Moreover, the inhibition at 1 µM on EphA4(h) (1000 nM) is 13%; at IRAK4(h) (1000 nM), -4%; at SRPK1(h) (1000 nM), 12%; at TAO2(h) (1000 nM) it was 66%; on Yes(h) (1000 nM), 97%.

Usually inhibition stands for the change of the read-out against control, counted positive when it falls.
